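Grown in 96-well plates, cells were treated for 48 hours with each compound at five concentrations. Insufficient inhibition: endpoint recorded as highest concentration tested. GI50 marks 50% less growth. The concentration for full growth arrest is given as TGI.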
Assays:
Experiment in all cases: NCI tumour cell line growth inhibition, 48 h
SK-MEL-5 melanoma = tested on: SK-MEL-5 melanoma
CAKI-1 renal = tested on: CAKI-1 renal
UACC-62 melanoma = tested on: UACC-62 melanoma
SF-268 CNS = tested on: SF-268 CNS
SK-OV-3 ovarian = tested on: SK-OV-3 ovarian
SK-MEL-28 melanoma = tested on: SK-MEL-28 melanoma
HL-60(TB) leukemia = tested on: HL-60(TB) leukemia
HCT-15 colon = tested on: HCT-15 colon
PC-3 prostate = tested on: PC-3 prostate
U251 CNS = tested on: U251 CNS
DU-145 prostate = tested on: DU-145 prostate
HCC-2998 colon = tested on: HCC-2998 colon
HCT-116 colon = tested on: HCT-116 colon
NCI-H23 lung = tested on: NCI-H23 lung
HS 578T breast = tested on: HS 578T breast
HT29 colon = tested on: HT29 colon
A549 NSCLC = tested on: A549 NSCLC
SK-MEL-2 melanoma = tested on: SK-MEL-2 melanoma
HOP-62 NSCLC = tested on: HOP-62 NSCLC
NCI-H460 lung = tested on: NCI-H460 lung
OVCAR-4 ovarian = tested on: OVCAR-4 ovarian
ACHN renal = tested on: ACHN renal
K-562 leukemia = tested on: K-562 leukemia
CCRF-CEM leukemia = tested on: CCRF-CEM leukemia
OVCAR-8 ovarian = tested on: OVCAR-8 ovarian
OVCAR-3 ovarian = tested on: OVCAR-3 ovarian
HOP-92 NSCLC = tested on: HOP-92 NSCLC
OVCAR-5 ovarian = tested on: OVCAR-5 ovarian
MCF7 breast = tested on: MCF7 breast
UO-31 renal = tested on: UO-31 renal
MOLT-4 leukemia = tested on: MOLT-4 leukemia
COLO 205 colon = tested on: COLO 205 colon
KM12 colon = tested on: KM12 colon
MDA-MB-435 = tested on: MDA-MB-435
IGROV1 ovarian = tested on: IGROV1 ovarian
SNB-75 CNS = tested on: SNB-75 CNS
RXF 393 renal = tested on: RXF 393 renal
NCI/ADR-RES ovarian = tested on: NCI/ADR-RES ovarian
786-0 renal = tested on: 786-0 renal
M14 melanoma = tested on: M14 melanoma
UACC-257 melanoma = tested on: UACC-257 melanoma
TK-10 renal = tested on: TK-10 renal
MALME-3M melanoma = tested on: MALME-3M melanoma
SF-539 CNS = tested on: SF-539 CNS
NCI-H522 lung = tested on: NCI-H522 lung
EKVX NSCLC = tested on: EKVX NSCLC
SR leukemia = tested on: SR leukemia
SW-620 colon = tested on: SW-620 colon
SNB-19 CNS = tested on: SNB-19 CNS
SN12C renal = tested on: SN12C renal
SF-295 CNS = tested on: SF-295 CNS
T-47D breast = tested on: T-47D breast
A498 renal = tested on: A498 renal
LOX IMVI melanoma = tested on: LOX IMVI melanoma
BT-549 breast = tested on: BT-549 breast
MDA-MB-231 breast = tested on: MDA-MB-231 breast
NCI-H226 lung = tested on: NCI-H226 lung
RPMI-8226 leukemia = tested on: RPMI-8226 leukemia

Work on `O=c1ccn(Cc2ccccc2CCl)c(=O)[nH]1` yielded a TGI (SK-MEL-5 melanoma) of 23.3 µM, a TGI (CAKI-1 renal) of 64 µM and a TGI (UACC-62 melanoma) of 63.4 µM. For the same molecule, the TGI (SF-268 CNS) was 75.8 µM, the TGI (SK-OV-3 ovarian) was over 100 µM and the TGI (SK-MEL-28 melanoma) was over 100 µM. It also gave a TGI (HL-60(TB) leukemia) of over 100 µM, a TGI (HCT-15 colon) of 35.8 µM and a TGI (PC-3 prostate) of over 100 µM. The TGI (U251 CNS) was 85.2 µM, the TGI (DU-145 prostate) was over 100 µM and the TGI (HCC-2998 colon) was 59 µM. For the same molecule, the TGI (HCT-116 colon) was 46 µM, the TGI (NCI-H23 lung) was 40.1 µM and the TGI (HS 578T breast) was 91.2 µM. It also gave a TGI (HT29 colon) of 68.6 µM, a TGI (A549 NSCLC) of over 100 µM and a TGI (SK-MEL-2 melanoma) of 89 µM. It also gave a TGI (HOP-62 NSCLC) of 52.7 µM, a TGI (NCI-H460 lung) of over 100 µM and a TGI (OVCAR-4 ovarian) of over 100 µM. For the same molecule, the TGI (ACHN renal) was 75.6 µM, the TGI (K-562 leukemia) was over 100 µM and the TGI (CCRF-CEM leukemia) was over 100 µM. For the same molecule, the TGI (OVCAR-8 ovarian) was 55.8 µM, the TGI (OVCAR-3 ovarian) was 42 µM and the TGI (HOP-92 NSCLC) was over 100 µM. For the same molecule, the TGI (OVCAR-5 ovarian) was 37.4 µM, the TGI (MCF7 breast) was 77.9 µM and the TGI (UO-31 renal) was 77.3 µM. For the same molecule, the TGI (MOLT-4 leukemia) was over 100 µM, the TGI (COLO 205 colon) was 94.3 µM and the TGI (KM12 colon) was 83.3 µM. It also gave a TGI (MDA-MB-435) of 96.5 µM, a TGI (IGROV1 ovarian) of 55.3 µM and a TGI (SNB-75 CNS) of over 100 µM. The TGI (RXF 393 renal) was 53.5 µM, the TGI (NCI/ADR-RES ovarian) was 44.4 µM and the TGI (786-0 renal) was 38 µM. It also gave a TGI (M14 melanoma) of 73.9 µM, a TGI (UACC-257 melanoma) of 98.8 µM and a TGI (TK-10 renal) of over 100 µM. It also gave a TGI (MALME-3M melanoma) of 40.6 µM, a TGI (SF-539 CNS) of 52.7 µM and a TGI (NCI-H522 lung) of 43.9 µM. It also gave a TGI (EKVX NSCLC) of 59.6 µM, a TGI (SR leukemia) of 73.4 µM and a TGI (SW-620 colon) of over 100 µM. For the same molecule, the TGI (SNB-19 CNS) was over 100 µM, the TGI (SN12C renal) was 59.4 µM and the TGI (SF-295 CNS) was 64.1 µM. For the same molecule, the TGI (T-47D breast) was over 100 µM.

With `CSCCC(NC(=O)Cc1ccc(C(=O)c2ccccc2)cc1)C(=O)N1CCN(CCCCN2c3ccccc3Sc3cc(N=[N+]=[N-])ccc32)CC1` (stereo not drawn) the TGI (SK-MEL-5 melanoma) was over 100 µM, the TGI (CAKI-1 renal) was over 100 µM and the TGI (UACC-62 melanoma) was over 100 µM. It also gave a TGI (SF-268 CNS) of over 100 µM, a TGI (SK-OV-3 ovarian) of over 100 µM and a TGI (HL-60(TB) leukemia) of over 100 µM. The TGI (HCT-15 colon) was over 100 µM, the TGI (A498 renal) was over 100 µM and the TGI (PC-3 prostate) was over 100 µM. The TGI (U251 CNS) was over 100 µM, the TGI (DU-145 prostate) was over 100 µM and the TGI (HCC-2998 colon) was over 100 µM. The TGI (HCT-116 colon) was over 100 µM, the TGI (NCI-H23 lung) was over 100 µM and the TGI (LOX IMVI melanoma) was over 100 µM. For the same molecule, the TGI (HT29 colon) was over 100 µM, the TGI (SK-MEL-2 melanoma) was over 100 µM and the TGI (HOP-62 NSCLC) was over 100 µM. It also gave a TGI (NCI-H460 lung) of over 100 µM, a TGI (OVCAR-4 ovarian) of over 100 µM and a TGI (BT-549 breast) of over 100 µM. It also gave a TGI (ACHN renal) of over 100 µM, a TGI (K-562 leukemia) of over 100 µM and a TGI (CCRF-CEM leukemia) of over 100 µM. It also gave a TGI (MDA-MB-231 breast) of over 100 µM, a TGI (OVCAR-3 ovarian) of over 100 µM and a TGI (HOP-92 NSCLC) of over 100 µM. It also gave a TGI (OVCAR-5 ovarian) of over 100 µM, a TGI (MCF7 breast) of over 100 µM and a TGI (UO-31 renal) of over 100 µM. The TGI (MOLT-4 leukemia) was over 100 µM, the TGI (COLO 205 colon) was over 100 µM and the TGI (KM12 colon) was over 100 µM. It also gave a TGI (IGROV1 ovarian) of over 100 µM, a TGI (NCI-H226 lung) of over 100 µM and a TGI (RXF 393 renal) of over 100 µM. For the same molecule, the TGI (786-0 renal) was over 100 µM, the TGI (UACC-257 melanoma) was over 100 µM and the TGI (TK-10 renal) was over 100 µM. For the same molecule, the TGI (MALME-3M melanoma) was over 100 µM, the TGI (RPMI-8226 leukemia) was over 100 µM and the TGI (NCI-H522 lung) was over 100 µM. It also gave a TGI (EKVX NSCLC) of over 100 µM, a TGI (SN12C renal) of over 100 µM and a TGI (SF-295 CNS) of over 100 µM.

`C#CC[C@@H]1C[C@]2(C)[C@H]3CC=C4[C@H]5[C@@H](C)[C@H](C)CC[C@]5(C(=O)NCCCCCCCCN)CC[C@@]4(C)[C@]3(C)CC[C@H]2C(C)(C)[C@H]1OC(C)=O` gave a GI50 (A498 renal) of 1.78 µM, a TGI (A498 renal) of 3.21 µM and a GI50 (K-562 leukemia) of 2.02 µM. It also gave a TGI (K-562 leukemia) of 5.69 µM, a GI50 (OVCAR-8 ovarian) of 2.15 µM and a TGI (OVCAR-8 ovarian) of 5.01 µM.

— PubChem BioAssay (NCI)
